Measured values reported in publication PMC11233931, “Remodeling tumor‐associated macrophage for anti‐cancer effects by rational design of irreversible inhibition of mitogen‐activated protein kinase‐activated protein kinase 2” (MedComm, 2024).

Assays:
Test in all cases: Eurofins kinase selectivity profile against 380 other human recombinant kinases (Table S2)
Type in all cases: biochemical
[1] = target: T1, 380 human recombinant protein kinases (Homo sapiens, UniProt P43250); settings: GRK6(h), read-out: Inhibition rate
T1 construct: purchased Eurofins (Celle Lévescault)
Outline: (§1)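 Profiling against 380 human recombinant kinases carried out by Eurofins at various compound concentrations.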

[2] = target: T2, 380 human recombinant protein kinases (Homo sapiens, UniProt Q9UQ07); settings: MOK(h), read-out: Inhibition rate
T2 construct: purchased Eurofins (Celle Lévescault)
T2 sequence (Q9UQ07 1-419): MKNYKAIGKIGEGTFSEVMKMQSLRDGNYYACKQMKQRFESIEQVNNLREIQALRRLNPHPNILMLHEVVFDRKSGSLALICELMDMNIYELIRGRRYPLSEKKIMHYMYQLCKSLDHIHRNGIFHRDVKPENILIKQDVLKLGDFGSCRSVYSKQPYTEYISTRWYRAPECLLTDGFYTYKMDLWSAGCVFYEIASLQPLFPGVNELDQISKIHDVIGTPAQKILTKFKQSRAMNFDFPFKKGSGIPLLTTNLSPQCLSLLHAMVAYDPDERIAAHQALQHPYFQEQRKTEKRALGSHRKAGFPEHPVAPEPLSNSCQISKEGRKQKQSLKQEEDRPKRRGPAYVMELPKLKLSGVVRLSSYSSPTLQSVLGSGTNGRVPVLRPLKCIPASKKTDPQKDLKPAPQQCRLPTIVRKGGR
Outline: as §1

[3] = target: T3, 380 human recombinant protein kinases (Homo sapiens, UniProt O14578); settings: CRIK(h), read-out: Inhibition rate
T3 construct: purchased Eurofins (Celle Lévescault)
Outline: as §1

[4] = target: T4, 380 human recombinant protein kinases (Homo sapiens, UniProt P48730); settings: CK1δ(h), read-out: Inhibition rate
T4 construct: purchased Eurofins (Celle Lévescault)
Outline: as §1

[5] = target: T5, 380 human recombinant protein kinases (Homo sapiens, UniProt P37023); settings: ALK1(h), read-out: Inhibition rate
T5 construct: purchased Eurofins (Celle Lévescault)
Outline: as §1

[6] = target: T6, 380 human recombinant protein kinases (Homo sapiens, UniProt P51617); settings: IRAK1(h), read-out: Inhibition rate
T6 construct: purchased Eurofins (Celle Lévescault)
Outline: as §1

[7] = target: T7, 380 human recombinant protein kinases (Homo sapiens, UniProt P48426); settings: PIP4K2α(h), read-out: Inhibition rate (%)
T7 construct: purchased Eurofins (Celle Lévescault)
T7 sequence (P48426 1-406): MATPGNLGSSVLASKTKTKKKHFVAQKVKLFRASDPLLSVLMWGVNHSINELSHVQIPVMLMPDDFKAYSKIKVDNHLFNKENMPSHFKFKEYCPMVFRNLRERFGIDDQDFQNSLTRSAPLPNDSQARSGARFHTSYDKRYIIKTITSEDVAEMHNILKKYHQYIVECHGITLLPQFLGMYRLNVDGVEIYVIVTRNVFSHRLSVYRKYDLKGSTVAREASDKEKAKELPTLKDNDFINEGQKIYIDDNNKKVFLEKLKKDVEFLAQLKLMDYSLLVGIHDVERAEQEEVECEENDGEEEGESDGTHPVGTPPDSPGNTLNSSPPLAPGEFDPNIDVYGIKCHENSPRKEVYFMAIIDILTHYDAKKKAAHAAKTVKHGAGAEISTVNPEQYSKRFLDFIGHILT
Outline: as §1

[8] = target: T8, 380 human recombinant protein kinases (Homo sapiens, UniProt P16591); settings: Fer(h), read-out: Inhibition rate
T8 construct: purchased Eurofins (Celle Lévescault)
Outline: as §1

[9] = target: T9, 380 human recombinant protein kinases (Homo sapiens, UniProt Q06418); settings: Rse(h), read-out: Inhibition rate
T9 construct: purchased Eurofins (Celle Lévescault)
T9 sequence (Q06418 41-890): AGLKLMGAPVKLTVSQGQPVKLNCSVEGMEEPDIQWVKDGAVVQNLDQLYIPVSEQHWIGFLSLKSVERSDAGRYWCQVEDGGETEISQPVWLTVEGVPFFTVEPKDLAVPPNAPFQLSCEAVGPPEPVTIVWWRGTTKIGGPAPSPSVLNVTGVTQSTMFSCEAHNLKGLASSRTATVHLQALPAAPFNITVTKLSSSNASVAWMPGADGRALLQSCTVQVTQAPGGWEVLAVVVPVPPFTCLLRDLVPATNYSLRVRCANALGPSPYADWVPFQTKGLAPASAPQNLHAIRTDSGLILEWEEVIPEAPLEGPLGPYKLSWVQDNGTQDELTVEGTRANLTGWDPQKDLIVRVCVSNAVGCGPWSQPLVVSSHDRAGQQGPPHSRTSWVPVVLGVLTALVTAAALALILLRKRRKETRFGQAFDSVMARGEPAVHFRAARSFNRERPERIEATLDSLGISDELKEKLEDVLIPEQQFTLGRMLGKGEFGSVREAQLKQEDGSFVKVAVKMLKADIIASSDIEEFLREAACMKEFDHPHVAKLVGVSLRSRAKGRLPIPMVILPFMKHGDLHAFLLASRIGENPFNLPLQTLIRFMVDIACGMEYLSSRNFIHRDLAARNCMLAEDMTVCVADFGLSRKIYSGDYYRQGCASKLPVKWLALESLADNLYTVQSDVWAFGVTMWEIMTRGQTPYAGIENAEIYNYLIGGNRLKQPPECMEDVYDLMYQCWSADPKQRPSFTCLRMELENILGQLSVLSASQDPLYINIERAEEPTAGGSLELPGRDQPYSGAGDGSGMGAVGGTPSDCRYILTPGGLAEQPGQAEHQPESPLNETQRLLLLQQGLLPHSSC
Outline: as §1

T6 sequence (P51617 whole entry): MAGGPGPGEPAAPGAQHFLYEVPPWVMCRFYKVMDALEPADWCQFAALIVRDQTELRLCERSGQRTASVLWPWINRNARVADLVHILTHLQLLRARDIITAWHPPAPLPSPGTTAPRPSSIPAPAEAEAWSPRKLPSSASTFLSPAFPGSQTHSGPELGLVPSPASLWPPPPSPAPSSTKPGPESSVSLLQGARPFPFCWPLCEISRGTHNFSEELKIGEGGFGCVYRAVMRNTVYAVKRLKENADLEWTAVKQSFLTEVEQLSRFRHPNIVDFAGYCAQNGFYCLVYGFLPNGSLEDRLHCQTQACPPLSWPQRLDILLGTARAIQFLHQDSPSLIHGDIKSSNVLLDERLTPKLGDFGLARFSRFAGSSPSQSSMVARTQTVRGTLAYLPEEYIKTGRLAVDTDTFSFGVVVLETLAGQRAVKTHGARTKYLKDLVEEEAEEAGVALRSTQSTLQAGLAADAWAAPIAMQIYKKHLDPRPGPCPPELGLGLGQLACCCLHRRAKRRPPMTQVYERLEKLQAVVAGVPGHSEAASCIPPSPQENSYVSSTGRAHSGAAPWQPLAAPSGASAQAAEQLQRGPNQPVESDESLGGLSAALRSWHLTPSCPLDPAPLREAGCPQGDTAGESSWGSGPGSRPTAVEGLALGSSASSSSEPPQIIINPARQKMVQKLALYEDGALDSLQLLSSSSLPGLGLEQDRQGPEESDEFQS
T3 sequence (O14578 whole entry): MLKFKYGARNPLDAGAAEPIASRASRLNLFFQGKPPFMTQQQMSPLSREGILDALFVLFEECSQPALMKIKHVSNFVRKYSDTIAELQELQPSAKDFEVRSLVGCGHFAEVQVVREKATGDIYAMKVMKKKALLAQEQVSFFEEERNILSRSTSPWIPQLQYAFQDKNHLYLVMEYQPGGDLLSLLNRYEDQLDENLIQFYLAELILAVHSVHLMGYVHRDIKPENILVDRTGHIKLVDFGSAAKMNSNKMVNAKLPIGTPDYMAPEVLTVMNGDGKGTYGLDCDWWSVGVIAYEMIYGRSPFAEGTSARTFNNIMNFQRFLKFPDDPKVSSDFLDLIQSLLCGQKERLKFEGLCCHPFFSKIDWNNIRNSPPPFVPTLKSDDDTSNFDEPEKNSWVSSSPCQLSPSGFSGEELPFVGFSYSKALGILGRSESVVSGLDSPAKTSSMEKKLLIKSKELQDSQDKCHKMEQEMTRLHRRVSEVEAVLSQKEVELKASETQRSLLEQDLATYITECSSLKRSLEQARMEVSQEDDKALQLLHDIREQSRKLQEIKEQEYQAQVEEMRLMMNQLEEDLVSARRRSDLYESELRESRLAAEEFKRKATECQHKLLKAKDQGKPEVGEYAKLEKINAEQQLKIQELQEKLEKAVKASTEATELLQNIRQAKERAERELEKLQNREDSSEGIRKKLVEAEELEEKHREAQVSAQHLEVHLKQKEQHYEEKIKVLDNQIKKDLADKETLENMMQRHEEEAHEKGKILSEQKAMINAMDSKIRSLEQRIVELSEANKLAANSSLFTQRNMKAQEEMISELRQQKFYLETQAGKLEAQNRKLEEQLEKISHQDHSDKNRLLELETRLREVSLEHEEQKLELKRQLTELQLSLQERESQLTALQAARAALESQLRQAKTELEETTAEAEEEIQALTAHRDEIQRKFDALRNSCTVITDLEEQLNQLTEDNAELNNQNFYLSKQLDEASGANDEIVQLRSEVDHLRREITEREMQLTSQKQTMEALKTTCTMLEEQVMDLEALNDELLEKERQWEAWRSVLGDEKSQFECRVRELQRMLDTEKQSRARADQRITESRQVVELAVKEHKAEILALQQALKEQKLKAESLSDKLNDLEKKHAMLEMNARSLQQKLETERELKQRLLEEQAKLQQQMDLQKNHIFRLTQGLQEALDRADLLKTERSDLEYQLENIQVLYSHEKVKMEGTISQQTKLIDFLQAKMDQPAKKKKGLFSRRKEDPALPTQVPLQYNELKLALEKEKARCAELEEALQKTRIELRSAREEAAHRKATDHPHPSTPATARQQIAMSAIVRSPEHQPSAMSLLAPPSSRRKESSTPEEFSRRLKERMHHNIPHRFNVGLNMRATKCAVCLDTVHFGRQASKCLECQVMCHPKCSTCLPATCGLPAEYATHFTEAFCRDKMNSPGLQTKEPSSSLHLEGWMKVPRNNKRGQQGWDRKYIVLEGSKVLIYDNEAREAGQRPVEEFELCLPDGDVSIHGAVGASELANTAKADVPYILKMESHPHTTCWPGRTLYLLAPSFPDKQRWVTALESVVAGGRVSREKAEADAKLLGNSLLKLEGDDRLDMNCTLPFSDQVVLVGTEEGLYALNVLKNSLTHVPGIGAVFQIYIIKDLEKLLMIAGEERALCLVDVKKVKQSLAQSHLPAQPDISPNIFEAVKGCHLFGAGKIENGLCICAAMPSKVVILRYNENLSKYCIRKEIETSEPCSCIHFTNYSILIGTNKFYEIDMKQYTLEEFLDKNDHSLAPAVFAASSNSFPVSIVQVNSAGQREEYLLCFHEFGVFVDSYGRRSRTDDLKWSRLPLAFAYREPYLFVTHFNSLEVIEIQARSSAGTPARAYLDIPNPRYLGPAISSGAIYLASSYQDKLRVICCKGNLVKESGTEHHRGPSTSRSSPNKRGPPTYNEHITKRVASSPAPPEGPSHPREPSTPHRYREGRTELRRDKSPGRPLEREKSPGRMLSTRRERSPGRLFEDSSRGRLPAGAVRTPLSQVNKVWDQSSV
T1 sequence (P43250 whole entry): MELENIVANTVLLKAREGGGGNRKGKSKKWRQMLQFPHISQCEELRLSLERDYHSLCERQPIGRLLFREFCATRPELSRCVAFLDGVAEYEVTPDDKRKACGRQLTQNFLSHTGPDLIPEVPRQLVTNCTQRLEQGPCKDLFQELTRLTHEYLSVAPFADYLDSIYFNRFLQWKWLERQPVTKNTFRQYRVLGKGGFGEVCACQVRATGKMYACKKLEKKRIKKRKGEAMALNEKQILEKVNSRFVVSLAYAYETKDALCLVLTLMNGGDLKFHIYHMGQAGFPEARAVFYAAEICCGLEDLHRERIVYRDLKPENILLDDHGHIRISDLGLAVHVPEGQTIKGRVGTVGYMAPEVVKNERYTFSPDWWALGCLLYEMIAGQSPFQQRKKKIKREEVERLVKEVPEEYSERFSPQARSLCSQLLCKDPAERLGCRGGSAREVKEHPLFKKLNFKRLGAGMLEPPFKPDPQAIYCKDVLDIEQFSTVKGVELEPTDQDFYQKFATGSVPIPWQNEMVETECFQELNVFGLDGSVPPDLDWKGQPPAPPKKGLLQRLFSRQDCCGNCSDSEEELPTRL
T5 sequence (P37023 22-503): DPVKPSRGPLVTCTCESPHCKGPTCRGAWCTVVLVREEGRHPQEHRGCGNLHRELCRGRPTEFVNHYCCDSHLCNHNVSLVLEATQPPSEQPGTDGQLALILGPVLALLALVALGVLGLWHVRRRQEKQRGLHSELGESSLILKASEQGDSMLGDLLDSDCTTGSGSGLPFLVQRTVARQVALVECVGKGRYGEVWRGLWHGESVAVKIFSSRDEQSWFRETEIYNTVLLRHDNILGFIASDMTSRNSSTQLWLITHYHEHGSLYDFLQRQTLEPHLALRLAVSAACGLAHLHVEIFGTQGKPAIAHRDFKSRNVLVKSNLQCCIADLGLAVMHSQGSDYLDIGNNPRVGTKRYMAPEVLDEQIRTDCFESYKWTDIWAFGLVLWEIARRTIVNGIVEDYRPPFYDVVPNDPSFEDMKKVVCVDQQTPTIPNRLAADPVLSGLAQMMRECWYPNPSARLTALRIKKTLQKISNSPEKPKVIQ
T4 sequence (P48730 whole entry): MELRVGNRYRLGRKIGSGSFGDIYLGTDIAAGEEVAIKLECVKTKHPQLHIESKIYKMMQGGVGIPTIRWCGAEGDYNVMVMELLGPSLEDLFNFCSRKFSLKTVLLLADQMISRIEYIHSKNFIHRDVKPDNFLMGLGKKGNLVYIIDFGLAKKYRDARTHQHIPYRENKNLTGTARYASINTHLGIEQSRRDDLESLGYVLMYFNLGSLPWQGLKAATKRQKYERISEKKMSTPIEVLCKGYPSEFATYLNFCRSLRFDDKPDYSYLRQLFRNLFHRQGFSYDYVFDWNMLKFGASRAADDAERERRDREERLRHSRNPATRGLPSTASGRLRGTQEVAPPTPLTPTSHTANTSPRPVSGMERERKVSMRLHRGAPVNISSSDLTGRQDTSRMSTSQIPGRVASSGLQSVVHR
T8 sequence (P16591 whole entry): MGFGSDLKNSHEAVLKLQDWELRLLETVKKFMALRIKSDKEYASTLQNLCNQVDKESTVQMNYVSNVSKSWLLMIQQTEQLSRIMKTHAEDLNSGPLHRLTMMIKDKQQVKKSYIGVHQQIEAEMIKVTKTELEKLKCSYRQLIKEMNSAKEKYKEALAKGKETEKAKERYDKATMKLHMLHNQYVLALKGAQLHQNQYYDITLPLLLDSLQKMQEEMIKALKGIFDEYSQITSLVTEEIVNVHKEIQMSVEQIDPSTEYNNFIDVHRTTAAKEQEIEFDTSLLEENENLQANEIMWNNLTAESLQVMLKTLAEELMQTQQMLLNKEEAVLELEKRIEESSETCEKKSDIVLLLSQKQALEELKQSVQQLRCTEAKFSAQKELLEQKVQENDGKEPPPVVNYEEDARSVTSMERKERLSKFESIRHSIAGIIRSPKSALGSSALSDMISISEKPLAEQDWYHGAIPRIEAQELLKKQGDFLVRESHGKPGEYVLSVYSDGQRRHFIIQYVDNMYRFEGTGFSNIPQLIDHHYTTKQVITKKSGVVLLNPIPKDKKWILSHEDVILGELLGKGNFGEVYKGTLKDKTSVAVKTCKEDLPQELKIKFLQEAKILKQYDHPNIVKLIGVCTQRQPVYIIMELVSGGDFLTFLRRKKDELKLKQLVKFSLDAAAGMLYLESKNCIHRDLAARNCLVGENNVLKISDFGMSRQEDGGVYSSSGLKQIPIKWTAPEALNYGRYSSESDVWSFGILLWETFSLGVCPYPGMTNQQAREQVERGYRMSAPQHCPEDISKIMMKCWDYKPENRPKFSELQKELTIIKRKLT

C=CC(=O)Nc1cc(-c2cc(-c3cc4c([nH]3)CCNC4=O)ccn2)ccc1OC(F)(F)F [compound 11]
inhibition at 0.01 µM ([1]; 10 nM): -1%
inhibition at 0.1 µM ([1]; 100 nM): -1%
inhibition at 1 µM ([1]; 1000 nM): 1%
inhibition at 0.01 µM ([2]; 10 nM): 11%
inhibition at 0.1 µM ([2]; 100 nM): 7%
inhibition at 1 µM ([2]; 1000 nM): 2%
inhibition at 0.01 µM ([3]; 10 nM): -8%
inhibition at 0.1 µM ([3]; 100 nM): 6%
inhibition at 1 µM ([3]; 1000 nM): 29%
inhibition at 0.01 µM ([4]; 10 nM): 3%
inhibition at 0.1 µM ([4]; 100 nM): 26%
inhibition at 1 µM ([4]; 1000 nM): 74%
inhibition at 0.01 µM ([5]; 10 nM): -16%
inhibition at 0.1 µM ([5]; 100 nM): -12%
inhibition at 1 µM ([5]; 1000 nM): -9%
inhibition at 0.01 µM ([6]; 10 nM): -1%
inhibition at 0.1 µM ([6]; 100 nM): 3%
inhibition at 1 µM ([6]; 1000 nM): 34%
inhibition at 0.01 µM ([7]; 10 nM): -1%
inhibition at 0.1 µM ([7]; 100 nM): -3%
inhibition at 1 µM ([7]; 1000 nM): -1%
inhibition at 0.01 µM ([8]; 10 nM): -11%
inhibition at 0.1 µM ([8]; 100 nM): -18%
inhibition at 1 µM ([8]; 1000 nM): -11%
inhibition at 0.01 µM ([9]; 10 nM): 7%
inhibition at 0.1 µM ([9]; 100 nM): -3%
inhibition at 1 µM ([9]; 1000 nM): -5%
